From patent US5248680A, “Zwitterionic compounds and their n-halo derivatives for use in the treatment of clinical conditions” (Bloomfield D.A., priority 1990, dated 1993) come the findings set out here.

The test system of experiment [1] is peripheral blood neutrophils. The experiment in a line: Chemiluminescence (reactive oxidant production) of peripheral blood neutrophils stimulated with calcium ionophore. It counts as cell-based. The following applies: Homo sapiens, Neutrophil, mean ± S.E.M.; for activity at 10000 µM: 10 mM zwitterionic compound, normal neutrophils, read-out: Chemiluminescence activity of normal neutrophils; for activity at 40000 µM: 40 mM taurine, read-out: Chemiluminesence production by neutrophils. The source says:
Patients were selected with mild to moderate plaque-type psoriasis on the basis of clinical and histological evidence of disease. Normal volunteers were selected from laboratory personnel without personal or family history of inflammatory disease. Disease control groups included: a) patients with eczema, acne and dermatitis herpetiformis; and b) patients with Crohn's disease and ulcerative colitis. Blood samples from each subject were drawn into sodium heparin Vacutainers® (Vacutainer is a Trade Mark). The inflammatory cells (neutrophils) were isolated by dextran sedimentation and FICOLL-PAQUE®(FICOLL-PLAQUE is a Trade Mark) gradient centrifugation. Viability and purity were assessed by fluorescence microscopy, using ethidium bromide and acridine orange staining. […] Chemiluminescence activity of the peripheral blood neutrophils was tested using the method of Bloomfield, F. J. and Young, M. M. (Inflammation, (1982) 6, 257, hereby incorporated by reference), using calcium ionophore (2μ Molar) as stimulant instead of opsonized zymosan. Chemiluminescence is a measure of the production of reactive oxidants by neutrophils in response to an inflammatory stimulus. It was observed that there was significant reduction in chemiluminescence activity by neutrophils in the taurine-treated and HEPES-treated cells compared to control cells in all groups.

Experiment [2] concerns myeloperoxidase. In words: Myeloperoxidase activity of neutrophils after preincubation with zwitterion. It counts as cell-based, human. The following applies: mean ± S.E.M.; for Myeloperoxidase activity of normal neutrophils: 10 mM zwitterionic compound; for Myeloperoxidase activity of neutrophils: 40 mM taurine. An excerpt: (§1) Patients were selected with mild to moderate plaque-type psoriasis on the basis of clinical and histological evidence of disease. Normal volunteers were selected from laboratory personnel without personal or family history of inflammatory disease. Disease control groups included: a) patients with eczema, acne and dermatitis herpetiformis; and b) patients with Crohn's disease and ulcerative colitis.
(§2) Blood samples from each subject were drawn into sodium heparin Vacutainers® (Vacutainer is a Trade Mark). The inflammatory cells (neutrophils) were isolated by dextran sedimentation and FICOLL-PAQUE®(FICOLL-PLAQUE is a Trade Mark) gradient centrifugation. Viability and purity were assessed by fluorescence microscopy, using ethidium bromide and acridine orange staining.

The subject of experiment [3] is leukotriene B4. The experiment in a line: Degradation of standard leukotriene B4 measured by radioimmunoassay. It counts as biochemical. The following applies: data not shown. The source says:
(§3) It was therefore proposed to test the hypothesis that HEPES could inactivate leukotriene B4 by indirect stimulation of MPO leading to increased production of hypochlorous acid from cellular hydrogen peroxide.

The test system of experiment [4] is neutrophils. The experiment in a line: Degranulation of lysosomal enzymes by neutrophils stimulated with calcium ionophore. In kind it is cell-based, human. As to conditions: result in words; taurine data not shown.
Source text: as §1, §2
Stimulation of the inflammatory process in neutrophils, not only activates the respiratory burst, but as a consequence, is also associated with release of lysosomal enzymes from the cells in a process called degranulation. Degranulation of lysosomal enzymes was stimulated in neutrophils from each group of subjects, using calcium ionophore as inflammatory stimulant.

In experiment [5] the test system is catalase. In words: Catalase activity of neutrophils after preincubation. It counts as cell-based, human. The following applies: neutrophils preincubated with HEPES or taurine; data not shown.
In experiment [6] the test system is neutrophils. In words: Hypochlorous acid production by neutrophils. The following applies: Homo sapiens, Neutrophil, 40 mM taurine, mean ± S.E.M. In kind it is cell-based.
Source text: as §1, §2

Experiment [7] relates to neutrophils. In words: Leukotriene B4 in supernatants of stimulated neutrophils. It counts as cell-based, human. The following applies: Homo sapiens, Neutrophil, 40 mM taurine, mean ± S.E.M., read-out: Leukotriene B4 production by neutrophils.
Source text: as §1, §2, §3
For the methodology used in the in vitro studies hereinafter described reference should be made to McLoughlin, D. M. et al. Biochem. Soc. Trans. (1991) 19:73-78 hereby incorporated by reference, except where otherwise stated.

Experiment [8] concerns monocytes. The experiment in a line: Leukotriene B4 in stimulated monocytes. The following applies: preincubation with 10 mM HEPES or 40 mM taurine; data not shown. It counts as cell-based, human.
Source text: as §3

Experiment [9] relates to carrageenan induced paw oedema. In words: Carrageenan-induced paw oedema in rats. It counts as in vivo, rat. The following applies: for percentage increase in paw volume: 1 h after carrageenan, mean ± S.E.M.; for reduction in paw oedema: versus control. The method, then: The studies were conducted on inbred Wistar strain albino rats (120-180 g) of either sex. The rats were housed in colony cages at an ambient temperature of 25°±2° C. and fed on standard pellet chow. The rats were anaesthetized using pentobarbitone sodium, their hind paws were marked and the volume measured. […] The control animals were injected with 10 μl of 0.9% saline solution. […] One hour following the carrageenan injection the hind paw volume was measured again. A 5 ml blood sample was taken from each animal into sodium heparin Vacutainers. Chemiluminescence activity was assayed in the PBMC isolated from each animal.
These studies were also conducted on inbred Wistar strain albino rats (120-180 g) of either sex. The rats were anaesthetized using pentobarbitone sodium prior to marking each hind paw and measuring paw volume. […] The control animals received 0.5 ml of 0.9% NaCl subcutaneously. 30 min after the injections were administered, paw oedema was induced using carrageenan. One hour following carrageenan administration the hind paw volume was measured. A 5 ml blood sample was taken from each animal into sodium heparin Vacutainers and used for chemiluminescence measurement.

Experiment [10] relates to myeloperoxidase. In words: Binding of zwitterion to myeloperoxidase (preliminary studies).

Read-outs that look alike come from different tables or passages of the source.

Consider `O=S(=O)(O)CCCN1CCN(CCO)CC1` [(H)EPPS, N-2-hydroxyethylpiperazine-N'3-propanesulphonic acid], for which, in experiment [1], the activity at 10000 µM worked out at 50.9 ± 7.38%. Also, the “Myeloperoxidase activity of normal neutrophils” value in experiment [2] is reported as “marked effect on MPO activity”; in [2] (10000 µM), 348 ± 15.1 percentage activity of control.

For `NC(=O)CNCCS(=O)(=O)O` [ACES, N-(2-acetamido)-2-aminoethanesulphonic acid], the activity at 10000 µM in [1] turned out to be 12.9 ± 2.75%. Moreover, the “Myeloperoxidase activity of normal neutrophils” value was “marked effect on MPO activity” in experiment [2] and 166 ± 18.2 percentage activity of control in experiment [2] (listed as ACE, 10000 µM).

Turning to `NC(=O)CN(CC(=O)O)CC(=O)O` [ADA, N-(2-acetamido)iminodiacetic acid], the activity at 10000 µM in [1] was 1.45 ± 0.27%. The “Myeloperoxidase activity of normal neutrophils” value in experiment [2] is 214 ± 32.3 percentage activity of control.

Consider `O=S(=O)(O)CCN(CCO)CCO` [BES, N,N-bis(2-hydroxyethyl)-2-aminoethanesulphonic acid], for which, in experiment [1], the activity at 10000 µM turned out to be 4.95 ± 0.93%. The “Myeloperoxidase activity of normal neutrophils” value in experiment [2] is “lesser effect on MPO stimulation”; in experiment [2] (10000 µM) it was 138 ± 14.1 percentage activity of control.

Consider `O=S(=O)(O)CCCNC1CCCCC1` [CAPS, 3-(cyclohexylamino)propanesulphonic acid], for which the activity at 10000 µM in experiment [1] worked out at 87.9 ± 8.87%. In addition, the “Myeloperoxidase activity of normal neutrophils” value in experiment [2] is listed as “little effect”; in experiment [2] (10000 µM) it was 115 ± 3.6 percentage activity of control.

In the case of `O=S(=O)(O)CCNC1CCCCC1` [CHES, 2-(cyclohexylamino)ethanesulphonic acid], the activity at 10000 µM in experiment [1] was found to be 68.4 ± 6.36%. The “Myeloperoxidase activity of normal neutrophils” value in experiment [2] is given as “little effect”; in [2] (10000 µM) it was 120 ± 4.8 percentage activity of control.

With `O=S(=O)(O)CCN1CCOCC1` [MES, 2(N-morpholino)ethanesulphonic acid], the activity at 10000 µM in [1] is 3.15 ± 0.67%. For the same molecule, the “Myeloperoxidase activity of normal neutrophils” value in experiment [2] is reported as “marked effect on MPO activity”; in experiment [2] (10000 µM) it was 264 ± 15.9 percentage activity of control.

Turning to `O=S(=O)(O)CCCN1CCOCC1` [MOPS, 3-(N-morpholino)propanesulphonic], the activity at 10000 µM in experiment [1] came out at 7.27 ± 1.53%. Also, the “Myeloperoxidase activity of normal neutrophils” value is on record as “lesser effect on MPO stimulation” in experiment [2] and 134 ± 13.4 percentage activity of control in [2] (10000 µM).

`O=S(=O)(O)CCN1CCN(CCS(=O)(=O)O)CC1` [PIPES, piperazine-N,N'bis(2-ethanesulphonic acid]: the activity at 10000 µM in experiment [1] came out at 4.08 ± 0.97%. Further, the results for the “Myeloperoxidase activity of normal neutrophils” value in experiment [2] and in [2] (10000 µM) were “marked effect on MPO activity” and 199 ± 23.1 percentage activity of control, respectively.

`O=S(=O)(O)CCNC(CO)(CO)CO` [TES, N-N[tris(hydroxymethyl)-methyl]-2-aminoethanesulphonic acid]: the activity at 10000 µM in [1] came out at 15.6 ± 2.41%. The “Myeloperoxidase activity of normal neutrophils” value was “lesser effect on MPO stimulation” in experiment [2] and 129 ± 20.1 percentage activity of control in experiment [2] (10000 µM).

Take `OCl` [hypochlorous acid, reference compound]: the “degradation of standard leukotriene B4” value in experiment [3] is “cause degradation of standard leukotriene B4”.

As to `O=S(=O)(O)CCNCl` [taurine chloramine], the “degradation of standard leukotriene B4” value in experiment [3] is recorded as “cause degradation of standard leukotriene B4”.

In the case of `NCCS(=O)(=O)O` [taurine, 2-aminoethanesulphonic acid], the activity at 40000 µM was found to be 12.7 ± 1.77% in [1] (Normal); 15.5 ± 2.1% in [1] (Psoriasis); 20.3 ± 1.85% in experiment [1] (disease controls (a)); 30.5 ± 8.6% in experiment [1] (disease controls (b)); 152 ± 14.1% in experiment [6] (Normal); 167 ± 34.7% in experiment [6] (Psoriasis). Also, the activity at 40000 µM was found to be 142 ± 32.1% in [6] (disease controls (a)); 64.8 ± 8.3% in experiment [7] (Normal); 66.5 ± 10.9% in experiment [7] (Psoriasis); 73.3 ± 9.95% in experiment [7] (disease controls (a)); 78 ± 8.6% in experiment [7] (disease controls (b)). Also, the “degranulation by preincubated neutrophils compared to control cells” value in [4] was “no significant difference in degranulation”. Moreover, the “Myeloperoxidase activity of neutrophils” value was 564 ± 38.3 percentage activity of control in experiment [2] (Normal), 591 ± 61.8 percentage activity of control in experiment [2] (Psoriasis), 473 ± 33.7 percentage activity of control in experiment [2] (disease controls (a)) and 485 ± 49.2 percentage activity of control in [2] (disease controls (b)). Also, the “effect on catalase activity” value in experiment [5] was “no effect on catalase activity”. Also, in [8], the “reduction of leukotriene B4 in monocytes” value is on record as “also demonstrated in monocytes”. In addition, the “percentage increase in paw volume” value is recorded as 30 ± 4 percentage increase in paw volume in [9] (I.C.V. 50 μg taurine), 21 ± 8 percentage increase in paw volume in experiment [9] (I.C.V. 500 μg taurine) and 27 ± 2 percentage increase in paw volume in [9] (S.C. 500 μg taurine). Also, the “reduction in paw oedema” value in experiment [9] (i.c.v. 50 μg taurine) is on record as 21%; in [9] (i.c.v. 500 μg taurine) it was 54%; in [9] (s.c. 500 μg taurine) it was 18%. Further, the “binding to the enzyme (MPO)” value in [10] is reported as “did not bind to the enzyme”.
